Data: patent publication US20220162191A1, “SMALL MOLECULE MODULATORS OF IL-17” (LEO PHARMA A/S, priority 2019, published 2022)

target: T1, human IL-17AA (Homo sapiens, UniProt Q16552); assay: IL-8 release assay in human epithelial keratinocytes adult (HEKa); type: cell-based; conditions: 3 ng/ml human IL-17AA + 10 ng/ml human TNFalpha, 68-72 h, IL-8 by HTRF, read-out: Rel EC50 L-8 release assay
T1 construct: host or cells: HEK (human embryonic kidney) cells
T1 sequence (Q16552 24-155) 1: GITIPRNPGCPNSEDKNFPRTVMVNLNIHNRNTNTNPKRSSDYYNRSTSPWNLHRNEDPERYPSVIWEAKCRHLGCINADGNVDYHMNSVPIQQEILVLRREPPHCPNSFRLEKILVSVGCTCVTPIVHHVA
T1 sequence (Q16552 24-155) 2: T1 sequence (Q16552 24-155) 1
How it was run: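 Adult human keratinocytes in Epilife with HKGS minus hydrocortisone, treated with compound then stimulated with final 3 ng/ml HEK-derived human IL-17AA plus 10 ng/ml TNF-alpha for 68–72 h at 37 °C; TNF-alpha alone defines 100% inhibition. Secreted IL-8 by HTRF; relative IC50 and Emax from four-parameter fits.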

Row | SMILES | EC50 [nM]
1 | Cc1n[nH]c(C)c1-c1ccc(NC(=O)[C@H](Cc2cc(-c3ccnc(N4CCC5(COC5)C4)n3)ccc2Cl)NC(=O)C2(F)CC2)cc1 [Example 316, N-[(1S)-1-[[2-chloro-5-[2-(2-oxa-7-azaspiro[3.4]octan-7-yl)pyrimidin-4-yl]phenyl]methyl]-2-[4-(3,5-dimethyl-1H-pyrazol-4-yl)anilino]-2-oxo-ethyl]-1-fluoro-cyclopropanecarboxamide] | < 100
2 | Cc1n[nH]c(C)c1-c1ccc(NC(=O)[C@@H](NC(=O)c2ccnn2C)[C@@H]2CCCc3ccc(-c4ccnc(N5C[C@H]6C[C@@H]5CO6)c4)cc32)cc1 [Example 394, N-[(1S)-2-[4-(3,5-dimethyl-1H-pyrazol-4-yl)anilino]-1-[(1R)-7-[2-[(1R,4R)-2-oxa-5-azabicyclo[2.2.1]heptan-5-yl]-4-pyridyl]tetralin-1-yl]-2-oxo-ethyl]-2-methyl-pyrazole-3-carboxamide] | < 100
3 | COCCOCCn1cc(-c2cccc(-c3ccc(Cl)c(CC(NC(=O)c4ccnn4C)C(=O)Nc4ccc(-c5c(C)n[nH]c5C)cc4)c3)c2)nn1 (stereo not drawn) [Example 312, N-[1-[[2-chloro-5-[3-[1-[2-(2-methoxyethoxy)ethyl]triazol-4-yl]phenyl]phenyl]methyl]-2-[4-(3,5-dimethyl-1H-pyrazol-4-yl)anilino]-2-oxo-ethyl]-2-methyl-pyrazole-3-carboxamide] | 100 to 1000
4 | CC(C)n1cc(-c2ccc(Cl)c(C[C@H](NC(=O)C(C)(C)F)C(=O)Nc3ccc(-c4nncn4C)cc3)c2)ccc1=O [Example 282, N-[(1S)-1-[[2-chloro-5-(1-isopropyl-6-oxo-3-pyridyl)phenyl]methyl]-2-[4-(4-methyl-1,2,4-triazol-3-yl)anilino]-2-oxo-ethyl]-2-fluoro-2-methyl-propanamide] | > 1000
5 | Cc1cnn(C)c1-c1ccc(NC(=O)[C@@H](NC(=O)c2ccnn2C)[C@@H](c2cccc(-c3cncc(N4C[C@@H]5C[C@H]4CO5)c3)c2)C2CC2)cc1 [Example 348, N-[(1S)-1-[(R)-cyclopropyl-[3-[5-[(1S,4S)-2-oxa-5-azabicyclo[2.2.1]heptan-5-yl]-3-pyridyl]phenyl]methyl]-2-[4-(2,4-dimethylpyrazol-3-yl)anilino]-2-oxo-ethyl]-2-methyl-pyrazole-3-carboxamide] | < 100
6 | CN(C)c1cc(-c2ccc(Cl)c(CC(NC(=O)c3ccnn3C)C(=O)Nc3ccc(-c4cncn4C)cc3)c2)ccn1 (stereo not drawn) [Example 162, N-[1-[[2-chloro-5-[2-(dimethylamino)-4-pyridyl]phenyl]methyl]-2-[4-(3-methylimidazol-4-yl)anilino]-2-oxo-ethyl]-2-methyl-pyrazole-3-carboxamide] | 100 to 1000
7 | Cc1n[nH]c(C)c1-c1ccc(NC(=O)[C@@H](NC(=O)C2(F)CC2)[C@@H]2CCc3ccc(-c4cc(N5CC(F)(F)C5)ncn4)cc32)cc1 [Example 375, N-[(1S)-1-[(1R)-6-[6-(3,3-difluoroazetidin-1-yl)pyrimidin-4-yl]indan-1-yl]-2-[4-(3,5-dimethyl-1H-pyrazol-4-yl)anilino]-2-oxo-ethyl]-1-fluoro-cyclopropanecarboxamide] | 100 to 1000
8 | Cc1n[nH]c(C)c1-c1ccc(NC(=O)[C@@H](NC(=O)c2ccnn2C)[C@@H]2CCCc3ccc(-c4cnn(C5CC5)c4)cc32)cc1 [Example 26, N-[(1S)-1-[(1R)-7-(1-cyclopropylpyrazol-4-yl)tetralin-1-yl]-2-[4-(3,5-dimethyl-1H-pyrazol-4-yl)anilino]-2-oxo-ethyl]-2-methyl-pyrazole-3-carboxamide] | < 100
9 | Cc1n[nH]c(C)c1-c1ccc(NC(=O)[C@@H](NC(=O)C2(F)CC2)[C@@H]2CCCc3ccc(-c4ccnc(N5C[C@H]6C[C@@H]5CO6)c4)cc32)cc1 [Example 28, N-[(1S)-2-[4-(3,5-dimethyl-1H-pyrazol-4-yl)anilino]-1-[(1R)-7-[2-[(1R,4R)-2-oxa-5-azabicyclo[2.2.1]heptan-5-yl]-4-pyridyl]tetralin-1-yl]-2-oxo-ethyl]-1-fluoro-cyclopropanecarboxamide] | < 100
